Data: US20140357512A1, “HISTONE DEACETYLASE (HDAC) BIOMARKERS IN MULTIPLE MYELOMA” (priority 2013, published 2014)

System: human myeloma cell line MM.1S
Assay: SILAC acetylated-lysine peptide profiling, HDAC inhibitor vs DMSO (light/heavy ratio)
Type: cell-based
Text: An embodiment of the invention comprises utilizing the SILAC method in order to quantitate changes in protein expression between two or more populations of cells. The SILAC method is a technique based on mass spectrometry that detects differences in protein abundance among samples using non-radioactive isotopic labeling. The SILAC method is known in the art, and described in detail in Ong et al., “Stable Isotope Labeling by Amino Acids in Cell Culture, SILAC, as a Simple and Accurate Approach to Expression Proteomics”, Molecular & Cellular Proteomics, vol. 1, pp. 376-386 (2002), which is incorporated herein by reference in its entirety.
Briefly, the SILAC method involves growing two populations of cells in cell culture. The first population of cells is grown in growth media containing normal amino acids (“normal media”). The second population of cells is grown in media lacking a standard essential amino acid (such as lysine), but is then supplemented with a non-radioactive, isotopically labeled form of that essential amino acid (such as lysine labeled with ^13C atoms, rather than normal ^12C atoms), which is called “heavy media”. When the two populations of cells are each growing in the medium, they incorporate the amino acids into all of their proteins. The growth of cells maintained in the heavy media is no different from that in normal media. All peptides containing the heavy amino acids are heavier than their normal counterparts. The cells from each of the two populations of cells are lysed. The lysates from each of the two cell populations are then combined. The combined cell lysates are then analyzed by mass spectrometry. Pairs of chemically identical peptides of different stable isotope composition can be differentiated in a mass spectrometer due to their difference in mass. The ratio of peak intensities in the mass spectrum for such peptide pairs reflects the abundance ratio for the two proteins.
This example describes SILAC studies that were performed to compare the effects of three different HDAC inhibitors (Compound A, Compound B, and tubastatin A) to a control on a human multiple myeloma cell line. The HDAC inhibitors were also compared amongst themselves to determine differences in their effects.
A human myeloma cell line MM.1S was grown using either ^12C (light) or ^13C (heavy) lysine containing culture medium. The “heavy” cells were treated with DMSO as the control, and the “light” cells were treated with a single HDAC inhibitor at 37° C. for 6 hours. The heavy and light cells were lysed, and the lysates were mixed in 1:1 ratio and digested with the protease trypsin. The acetylated lysine containing peptides (due to the action of the HDAC inhibitor) in the digested peptide pool were captured by a non-specific anti-acetylated lysine antibody cocktail (the antibodies identify both light and heavy acetylated peptides), and subjected to mass spectrometry analysis in order to identify thousands of individual peptides.
Thousands of peptides were identified in pairs (^12C and ^13C) due to their known mass differences. The amino acid sequence and quantitative ratio (Light/Heavy) of a given peptide in two differentially treated cell lysates were then determined and annotated with their possible protein (gene) sources.
As stated above, three HDAC inhibitors (Compound A, Compound B, and Tubastatin A) were used. Thus, the SILAC method was performed three times, with a different HDAC inhibitor compared to a control each time. Accordingly, there are three pairs of quantitative data in the table below, i.e., Compound A:DMSO, Compound B:DMSO, and Tubastatin A:DMSO. A cut-off of 1.30 fold of change (increase or decrease) was then used to determine “changed” or “+” in the table, and any peptides with a fold of change less than 1.3 fold were determined to be “unchanged” or “0” in the table. Those peptides that were not identified were marked as “NA” in the table. […]

CN1CCc2c(c3ccccc3n2Cc2ccc(C(=O)NO)cc2)C1 [Tub A]
L/H ratio of acetylated peptide MYFDK(ac)YVLKPATEGK (SEQ ID NO: 23) (ATAD3A [491], log 2 scale, drug vs DMSO): 0.62 | L/H ratio of acetylated peptide IVEYEK(ac)EMEK (SEQ ID NO: 24) (ATP5H [117], log 2 scale, drug vs DMSO): 0.63 | L/H ratio of acetylated peptide YYNK(ac)YINVK (SEQ ID NO: 12) (ATP5J2 [54], log 2 scale, drug vs DMSO): 0.66 | light to heavy ratio (L/H ratio) of acetylated peptide QNK(ac)LEQVEK (SEQ ID NO: 271) (ATP synthase subunit O mitochondrial [54], ATP50, drug:DMSO): 0.45 log 2 | light to heavy ratio (L/H ratio) of acetylated peptide STVAQLVK(ac)R (SEQ ID NO: 552) (ATP synthase subunit alpha mitochondrial [261], gene ATP5A1, inhibitor:DMSO): 0.00 log 2 | light to heavy ratio (L/H ratio) of acetylated peptide ISEQSDAK(ac)LK (SEQ ID NO: 600) (ATP synthase subunit alpha mitochondrial [539], gene ATP5A1, inhibitor:DMSO): 0.00 log 2 | light to heavy ratio (L/H ratio) of acetylated peptide HVVQSISTQQEK(ac)ETIAK (SEQ ID NO: 307) (ATP synthase subunit b mitochondrial [233], ATP5F1, drug:DMSO): 0.62 log 2 | light to heavy ratio (L/H ratio) of acetylated peptide IVNSAQTGSFK(ac)QLTVK (SEQ ID NO: 279) (ATP synthase subunit g mitochondrial [66], ATP5L, drug:DMSO): 0.77 log 2 | light to heavy ratio (L/H ratio) of acetylated peptide ELDPIQK(ac)LFVDK (SEQ ID NO: 365) (ATP synthase-coupling factor 6 mitochondrial [41], ATP5J, drug:DMSO): 0.00 log 2 | light to heavy ratio (L/H ratio) of acetylated peptide FEDPK(ac)FEVIEKPQA (SEQ ID NO: 325) (ATP synthase-coupling factor 6 mitochondrial [99], ATP5J, drug:DMSO): 0.00 log 2 | light to heavy ratio (L/H ratio) of acetylated peptide, log 2 scale (AVEEK(ac)IEWLESHQDADIEDFK (SEQ ID NO: 172), 78 kDa glucose-regulated protein [601], HSPA5): −0.54 | light to heavy ratio (L/H ratio) of acetylated peptide, log 2 scale (AVIWPQYVK(ac)DR (SEQ ID NO: 156), cDNA FLJ59630 highly similar to Growth hormone-inducible transmembrane protein [124], GHITM): 0.47 | light to heavy ratio (L/H ratio) of acetylated peptide, log 2 scale (AVK(ac)HAEELER (SEQ ID NO: 225), Isoform 2 of Signal recognition particle 68 kDa protein [164], SRP68): −1.00 | light to heavy ratio (L/H ratio) of acetylated peptide, log 2 scale (AYGGSMCAK(ac)CVR (SEQ ID NO: 204), 60S ribosomal protein L34 [85], RPL34): 0.40 | L/H ratio of acetylated peptide (AYHLQK(ac)STCGK (SEQ ID NO: 443), 60S ribosomal protein L37 [31], RPL37): 0.00 log 2 | light to heavy ratio (L/H ratio) of acetylated peptide AFAK(ac)ELFLGK (SEQ ID NO: 627) (Acyl-CoA dehydrogenase family member 9 mitochondrial [41], gene ACAD9, inhibitor:DMSO): 0.00 log 2 | light to heavy ratio (L/H ratio) of acetylated peptide YSAK(ac)DYFFK (SEQ ID NO: 319) (Alpha-soluble NSF attachment protein [203], NAPA, drug:DMSO): 0.44 log 2 | light to heavy ratio (L/H ratio) of acetylated peptide PAQGAK(ac)YR (SEQ ID NO: 305) (Annexin A6 [9], ANXA6, drug:DMSO): 0.39 log 2 | light to heavy ratio (L/H ratio) of acetylated peptide TKYEK(ac)SLYSMIK (SEQ ID NO: 270) (Annexin A6 [299], ANXA6, drug:DMSO): 0.42 log 2 | light to heavy ratio (L/H ratio) of acetylated peptide NDTSGEYK(ac)K (SEQ ID NO: 285) (Annexin A6 [314], ANXA6, drug:DMSO): 0.70 log 2 | light to heavy ratio (L/H ratio) of acetylated peptide AINEAYK(ac)EDYHK (SEQ ID NO: 282) (Annexin A6 [478], ANXA6, drug:DMSO): 0.53 log 2 | light to heavy ratio (L/H ratio) of acetylated peptide NKPLFFADK(ac)LYK (SEQ ID NO: 298) (Annexin A6 [607], ANXA6, drug:DMSO): 0.51 log 2 | light to heavy ratio (L/H ratio) of acetylated peptide GAGTDEK(ac)TLTR (SEQ ID NO: 621) (Annexin A6 [620], gene ANXA6, inhibitor:DMSO): 0.00 log 2 | light to heavy ratio (L/H ratio), log 2 scale, acetylated peptide EFIEK(ac)YDK (SEQ ID NO: 779) (Annexin A6 [644], gene ANXA6, drug:DMSO): 0.00 | light to heavy ratio (L/H ratio) of acetylated peptide DDNGK(ac)PYVLPSVR (SEQ ID NO: 579) (Aspartate aminotransferase mitochondrial [73], gene GOT2, inhibitor:DMSO): 0.00 log 2 | light to heavy ratio (L/H ratio) of acetylated peptide ELK(ac)EIQYGIR (SEQ ID NO: 540) (Branched-chain-amino-acid aminotransferase [337], gene BCAT2, inhibitor:DMSO): 0.00 log 2 | light to heavy ratio (L/H ratio), log 2 scale, acetylated peptide ESCSK(ac)HASGTSFHLPQPSFR (SEQ ID NO: 780) (Bromodomain and PHD finger-containing protein 3 [105], gene BRPF3, drug:DMSO): 0.00 | L/H ratio of acetylated peptide FYGDEEK(ac)DKGLQTSQDAR (SEQ ID NO: 25) (CALR [62], log 2 scale, drug vs DMSO): −0.97 | light to heavy ratio (L/H ratio) of acetylated peptide AGLQVYNK(ac)CWK (SEQ ID NO: 260) (CD59 glycoprotein [63], CD59, drug:DMSO): −0.45 log 2 | L/H ratio of acetylated peptide ALEHFTDLYDIK(ac)R (SEQ ID NO: 26) (CLTC [637], log 2 scale, drug vs DMSO): −0.62 | L/H ratio of acetylated peptide FK(ac)ESFAEMNR (SEQ ID NO: 1) (COX4I1 [87], log 2 scale, drug vs DMSO): 0.52 | L/H ratio of acetylated peptide […](ac)QLCTIPR (SEQ ID NO: 27) (CREBBP [1216], log 2 scale, drug vs DMSO): 0.60 | L/H ratio of acetylated peptide TNK(ac)NK(ac)SSISR (SEQ ID NO: 13) (CREBBP [1595:1597], log 2 scale, drug vs DMSO): 0.64 | L/H ratio of acetylated peptide ALK(ac)DLYCHK (SEQ ID NO: 28) (CREM [240], log 2 scale, drug vs DMSO): 0.43 | L/H ratio of acetylated peptide LYCPK(ac)CMDVYTPK (SEQ ID NO: 29) (CSNK2B [139], log 2 scale, drug vs DMSO): −0.39 | light to heavy ratio (L/H ratio) of acetylated peptide FVLSSGK(ac)FYGDEEKDK (SEQ ID NO: 281) (Calreticulin [55], CALR, drug:DMSO): −0.51 log 2 | light to heavy ratio (L/H ratio) of acetylated peptide VHVIFNYK(ac)GK (SEQ ID NO: 273) (Calreticulin [151], CALR, drug:DMSO): −0.58 log 2 | light to heavy ratio (L/H ratio) of acetylated peptide NVLINK(ac)DIR (SEQ ID NO: 257) (Calreticulin [159], CALR, drug:DMSO): −0.88 log 2 | light to heavy ratio (L/H ratio) of acetylated peptide TCDLVGEK(ac)GK (SEQ ID NO: 289) (Cation-dependent mannose-6-phosphate receptor [38], M6PR, drug:DMSO): −0.81 log 2 | light to heavy ratio (L/H ratio) of acetylated peptide EFALK(ac)HLPNDPMFK (SEQ ID NO: 583) (Citrate synthase mitochondrial [366], gene CS, inhibitor:DMSO): 0.00 log 2 | light to heavy ratio (L/H ratio), log 2 scale, acetylated peptide MIYASSK(ac)DAIKK (SEQ ID NO: 763) (Cofilin-1 [121], gene CFL1, drug:DMSO): 0.00 | light to heavy ratio (L/H ratio) of acetylated peptide AAEEVEAK(ac)FK (SEQ ID NO: 328) (Coiled-coil-helix-coiled-coil-helix domain-containing protein 3 mitochondrial [173], CHCHD3, drug:DMSO): 0.00 log 2 | light to heavy ratio (L/H ratio) of acetylated peptide ASEIGEK(ac)YR (SEQ ID NO: 586) (Conserved hypothetical protein [484], gene KIAA0947, inhibitor:DMSO): 0.00 log 2 | light to heavy ratio (L/H ratio) of acetylated peptide DHCVAHK(ac)LFNNLK (SEQ ID NO: 608) (Cytochrome b-c1 complex subunit 6 mitochondrial [85], gene UQCRH, inhibitor:DMSO): 0.00 log 2
